Results as given in patent US20170066759A1, “AROMATIC 5-MEMBERED HETEROCYCLIC DERIVATIVE HAVING TRPV4-INHIBITING ACTIVITY” (Shionogi & Co., Ltd., priority 2012, published 2017).

Legend:
[1] = molecular target: T1, human TRPV4 (hTRPV4/CHO cells) (Homo sapiens, UniProt Q9HBA0); assay: Test Example 2: TRPV4 inhibitory activity (IC50 value), 4α-PDD stimulation, Fluo3 calcium fluorescence (FLIPR); format: cell-based
T1 construct: expressed in transfected cells; host or cells: CHO-K1
Procedure: TRPV4 Inhibitory Activity (IC50 Value)
(§1) For each compound, TRPV4 inhibitory activity was measured using cells.
(§2) (Method) The procedures of evaluating TRPV4 inhibitory activity of a compound are as follows.
(§3) (1) TRPV4 inhibitory activity was measured using CHO-K1 cells stably expressing human TRPV4 (hTRPV4/CHO cells).
(2) In the day before the experimental day, frozen cell were thawed and washed with the culture medium (MEM-α, 10% FBS, 4 mmol/L L-Glutamine, 50 unit Penicillin, 50 μg/mL Streptomycin). Then cells were suspended in the culture medium.
(3) The 384-well plates which hTRPV4/CHO cells were seeded at densities of 4000 cells/well in the culture medium and cultured in a CO2 incubator in the presence of 5% CO2 at 37° C. for 24 hours was used as assay plates.
(4) The assay plate was washed with assay buffer (Hanks, 20 mmol/L HEPES, 2.5 mmol/L probenecid, pH7.4), and the buffer were remained at 20 μL/well.
(5) 10 μl of dye loading buffer (9 μmol/L Fluo 3-AM, 0.09% Pluronic F-127, 1% BSA/assay buffer) was added to each well, then the assay plate was incubated in a CO2 incubator in the presence of 5% CO2 at 37° C. for one hour. (final conc.; 3 μmol/L Fluo3-AM).
(6) The assay plate was washed with the assay buffer, and the buffers were remained at 20 μL/well. Then the assay plate was incubated for 10 min at room temperature.
(7) 20 μL of diluted compound solution was added to each well of assay plate, and mixed with built-in Pipette and Mixer of the Fluorescence analysis system FLIPR 384 (Molecular devices).
(8) After incubation for 4 min, 25 μL of 4α-PDD solution were applied to each well of assay plate and mixed with the FLIPR TETRA. (final conc.; 600 nmol/L 4α-PDD)
(9) The fluorescent intensity was measured with FLIPR TETRA system for 7 min from the point of time addition the compound solution, at Ex 488 nm, Em 510-570 nm wavelength.
TRPV4 inhibitory activity (IC50 value) of a compound was calculated according to the following procedure.
(10) In the presence of the compound, the difference between maximal and minimal of fluorescent intensity value for 3 min from just before addition of 4α-PDD solution was calculated, and it was referred as Max-Min value. Max-Min value of the Ruthenium Red at 20 μM was defined as 100% inhibitory activity, Max-Min value in the absence of the compound was defined as 0% inhibitory activity. TRPV4 inhibitory activity of the compound was calculated by the following formula.
(§4) (1−(Max−Min value of the compound−100% inhibitory activity)/(0% inhibitory activity−100% inhibitory activity))×100
(11) Inhibitory activity was calculated at 10 points with twice serial dilution, in the final concentration of the compound from 3.85 μg/mL to 7.5 ng/mL, the IC50 value (nmol/L) was calculated by logistic approximation method.

[2] = molecular target: T1, human TRPV4 (hTRPV4/CHO cells); assay: Test Example 4: TRPV4 inhibitory activity (Ki value), 4α-PDD stimulation, Fluo-3 calcium fluorescence (FDSS 3000); format: cell-based; conditions: Test Example 4, 4α-PDD stimulation, read-out: Test 4 Ki
Procedure: TRPV4 Inhibitory Activity (Ki Value)
as §1, §2, §3
(2) Cells were subcultured using the MEM-α medium (SIGMA M4526: 500 ml), FBS (HyCloneSH30070.03: 10%), L-Glutamine 200 mmol/L (GIBCO: 4 mmol/L), P/S (nacalai tesque: 1%), G418 (nacalai tesque: 1 mg/mL).
(3) The 96-well plates which hTRPV4/CHO cells were seeded at densities of 2×10^4 cells/well in the culture medium in the day before the experimental day, and cultured in a CO2 incubator in the presence of 5% CO2 at 37° C. for 24 hours was used as assay plates.
(4) Cells were washed with assay buffer (Hank's Balanced Salt Solution 9.8 g, 1 mol/L HEPES (pH7.5), 250 mmol/L probenecid).
(5) Fluo-3, fluorescent dye for Ca influx assay was added to each well, then the assay plate was incubated in a CO2 incubator in the presence of 5% CO2 at 37° C. for one hour (final conc.; 5 μmol/L Fluo-3).
(6) The assay plate was washed with the assay buffer, and the buffer was remained at 30 μL/well. Then the assay plate was incubated for 10 min at 37° C.
(7) 20 μL of diluted compound solution was added to each well of assay plate, and mixed with built-in Pipette and Mixer of the fluorescence analysis system FDSS 3000 (Hamamatsu Photonics).
(8) 50 μL of 4α-PDD solution (concluding 0.1% Pluronic F-127) was applied to each well of assay plate and mixed.
(9) The fluorescent intensity was measured by FDSS 3000 for 8 min from the point of time addition the compound solution, at Ex 480 nm, Em 540 nm wavelength.
TRPV4 inhibitory activity (Ki value) of a compound was calculated according to the following procedure.
(10) In the presence of the compound, the difference between maximal and minimal of fluorescent intensity value for 8 min from just before addition of 4α-PDD solution was calculated, and it was referred as Max-Min value. Max-Min value of the Ruthenium Red at 10 μM was defined as 100% inhibitory activity, Max-Min value in the absence of the compound was defined as 0% inhibitory activity. TRPV4 inhibitory activity of the compound was calculated by the following formula.
as §4
(11) By the following formula, inhibitory activity was calculated at 10 points with three fold serial dilution, in the final concentration of the compound from 10 μmol/L to 0.5 nmol/L. The IC50 value was calculated by dose-response curve.
100−[(fluorescent intensity in the presence of the compound−fluorescent intensity of back ground)/(total fluorescent intensity−fluorescent intensity of back ground)]×100
(12) In the presence of the compound, activity of 4α-PDD was measured at 9 points with three fold serial dilution from 20 μmol/L. Activity of 4α-PDD was calculated by the following formula.
(Max−Min value of the each 4α-PDD concentration−0% activity)/(100% activity−0% activity))×100
(13) Effective activity was calculated in 4α-PDD the above. The EC50 value was calculated by dose-response curve.
(14) The Ki value of a compound was calculated by the following formula.
Ki=IC50 value/1+([A]/EC50)
[A]: Concentration of agonist (nmol/L)

CYP1A2 = molecular target: T2, CYP1A2 (Homo sapiens, UniProt P05177); assay: Test Example 6: CYP inhibition test, 7-ethoxyresorufin O-deethylation (CYP1A2); format: in vitro ADME; conditions: pooled human hepatic microsome, 0.5 μmol/L ethoxyresorufin
T2 construct: enzyme, pooled human hepatic microsome 0.2 mg protein/mL; from tissue; host or cells: pooled human liver microsomes
T2 sequence (P05177 1-516): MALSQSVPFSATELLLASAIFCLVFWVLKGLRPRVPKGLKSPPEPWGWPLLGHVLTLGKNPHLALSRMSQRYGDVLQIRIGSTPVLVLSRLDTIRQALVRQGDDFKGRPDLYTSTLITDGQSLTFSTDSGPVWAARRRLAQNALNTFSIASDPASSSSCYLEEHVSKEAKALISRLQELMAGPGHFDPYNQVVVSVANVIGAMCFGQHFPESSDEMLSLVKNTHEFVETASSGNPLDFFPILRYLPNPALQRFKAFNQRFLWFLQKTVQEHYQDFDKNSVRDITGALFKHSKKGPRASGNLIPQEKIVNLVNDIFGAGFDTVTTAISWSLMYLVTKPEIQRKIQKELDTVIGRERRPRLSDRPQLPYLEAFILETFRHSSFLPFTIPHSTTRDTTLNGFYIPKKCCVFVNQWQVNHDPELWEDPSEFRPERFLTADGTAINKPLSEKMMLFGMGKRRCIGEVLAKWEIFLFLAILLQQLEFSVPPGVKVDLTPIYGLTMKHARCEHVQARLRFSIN
Procedure: (§5) Test Example 6 CYP Inhibition Test […] The reaction conditions were as follows: substrate, 0.5 μmol/L ethoxyresorufin (CYP1A2), 100 μmol/L tolbutamide (CYP2C9), 50 μmol/L S-mephenytoin (CYP2C19), 5 μmol/L dextromethorphan (CYP2D6), 1 μmol/L terfenedine (CYP3A4); reaction time, 15 minutes; reaction temperature, 37° C.; enzyme, pooled human hepatic microsome 0.2 mg protein/mL; concentration of the compound of the present invention, 1, 5, 10, 20 μmol/L (four points). Each five kinds of substrates, human hepatic microsome, and the compound of the present invention in 50 mmol/L Hepes buffer as a reaction solution were added to a 96-well plate at the composition as described above. NADPH, as a cofactor was added to initiate metabolism reactions as markers and, after the incubation at 37° C. for 15 minutes, a methanol/acetonitrile=1/1 (v/v) solution was added to stop the reaction. After the centrifugation at 3000 rpm for 15 minutes, resorufin (CYP1A2 metabolite) in the supernatant was quantified by a fluorescent multilabel counter and toltributamide hydroxide (CYP2[…] metabolite), mephenytoin 4' hydroxide (CYP2C19 metabolite), […], and terfenadine alcohol (CYP3A4 metabolite) were quantified by LC/MS/MS. Addition of only DMSO being a solvent dissolving the compound of the present invention to a reaction system was adopted as a control (100%). Remaining activity (%) was calculated at each concentration of the compound of the present invention added as the solution and IC50 was calculated by reverse presumption by a logistic model using a concentration and an inhibition rate.

CYP2C9 = molecular target: T3, CYP2C9 (Homo sapiens, UniProt P11712); assay: Test Example 6: CYP inhibition test, tolbutamide methyl-hydroxylation (CYP2C9); format: in vitro ADME; conditions: pooled human hepatic microsome, 100 μmol/L tolbutamide
T3 construct: enzyme, pooled human hepatic microsome 0.2 mg protein/mL; from tissue; host or cells: pooled human liver microsomes
Procedure: as §5

CYP2C19 = molecular target: T4, CYP2C19 (Homo sapiens, UniProt P33261); assay: Test Example 6: CYP inhibition test, mephenytoin 4′-hydroxylation (CYP2C19); format: in vitro ADME; conditions: pooled human hepatic microsome, 50 μmol/L S-mephenytoin
T4 construct: enzyme, pooled human hepatic microsome 0.2 mg protein/mL; from tissue; host or cells: pooled human liver microsomes
Procedure: as §5

CYP2D6 = molecular target: T5, CYP2D6 (Homo sapiens, UniProt P10635); assay: Test Example 6: CYP inhibition test, dextromethorphan O-demethylation (CYP2D6); format: in vitro ADME; conditions: pooled human hepatic microsome, 5 μmol/L dextromethorphan
T5 construct: enzyme, pooled human hepatic microsome 0.2 mg protein/mL; from tissue; host or cells: pooled human liver microsomes
Procedure: as §5

CYP3A4 = molecular target: T6, CYP3A4 (Homo sapiens, UniProt P08684); assay: Test Example 6: CYP inhibition test, terfenedine hydroxylation (CYP3A4); format: in vitro ADME; conditions: pooled human hepatic microsome, 1 μmol/L terfenedine
T6 construct: enzyme, pooled human hepatic microsome 0.2 mg protein/mL; from tissue; host or cells: pooled human liver microsomes
Procedure: as §5

[3] = molecular target: T1, human TRPV4 (hTRPV4/CHO cells); assay: Test Example 1: TRPV4 inhibitory activity (IC50 value), 4α-PDD stimulation, Fluo4 calcium fluorescence (FLIPR TETRA); format: cell-based; conditions: Test Example 1, 4α-PDD stimulation, read-out: Test 1 IC50
[4] = Test Example 2, 4α-PDD stimulation, read-out: Test 2 IC50

T1 sequence (Q9HBA0 whole entry): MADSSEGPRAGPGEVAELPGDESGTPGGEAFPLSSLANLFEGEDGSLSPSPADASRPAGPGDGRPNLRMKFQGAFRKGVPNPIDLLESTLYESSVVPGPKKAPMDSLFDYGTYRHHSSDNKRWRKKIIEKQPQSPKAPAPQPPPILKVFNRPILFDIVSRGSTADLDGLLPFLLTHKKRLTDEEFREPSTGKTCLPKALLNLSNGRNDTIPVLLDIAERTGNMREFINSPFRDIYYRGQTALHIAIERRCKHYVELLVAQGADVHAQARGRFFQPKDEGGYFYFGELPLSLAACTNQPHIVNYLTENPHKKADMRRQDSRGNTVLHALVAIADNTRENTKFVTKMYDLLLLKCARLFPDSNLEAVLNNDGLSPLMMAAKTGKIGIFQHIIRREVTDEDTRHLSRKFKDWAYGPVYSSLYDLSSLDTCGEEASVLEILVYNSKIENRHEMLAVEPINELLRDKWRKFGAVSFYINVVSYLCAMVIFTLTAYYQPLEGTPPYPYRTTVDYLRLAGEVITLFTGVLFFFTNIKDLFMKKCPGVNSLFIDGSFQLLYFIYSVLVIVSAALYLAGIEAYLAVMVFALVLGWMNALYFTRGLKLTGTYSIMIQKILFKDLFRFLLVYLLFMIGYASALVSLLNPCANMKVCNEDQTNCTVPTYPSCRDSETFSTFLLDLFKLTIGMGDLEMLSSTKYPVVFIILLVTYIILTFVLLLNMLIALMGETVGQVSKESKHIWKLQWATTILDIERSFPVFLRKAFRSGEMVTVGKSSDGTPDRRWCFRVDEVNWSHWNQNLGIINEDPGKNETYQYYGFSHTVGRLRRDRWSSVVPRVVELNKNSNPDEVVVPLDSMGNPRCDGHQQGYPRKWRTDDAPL
T6 sequence (P08684 whole entry): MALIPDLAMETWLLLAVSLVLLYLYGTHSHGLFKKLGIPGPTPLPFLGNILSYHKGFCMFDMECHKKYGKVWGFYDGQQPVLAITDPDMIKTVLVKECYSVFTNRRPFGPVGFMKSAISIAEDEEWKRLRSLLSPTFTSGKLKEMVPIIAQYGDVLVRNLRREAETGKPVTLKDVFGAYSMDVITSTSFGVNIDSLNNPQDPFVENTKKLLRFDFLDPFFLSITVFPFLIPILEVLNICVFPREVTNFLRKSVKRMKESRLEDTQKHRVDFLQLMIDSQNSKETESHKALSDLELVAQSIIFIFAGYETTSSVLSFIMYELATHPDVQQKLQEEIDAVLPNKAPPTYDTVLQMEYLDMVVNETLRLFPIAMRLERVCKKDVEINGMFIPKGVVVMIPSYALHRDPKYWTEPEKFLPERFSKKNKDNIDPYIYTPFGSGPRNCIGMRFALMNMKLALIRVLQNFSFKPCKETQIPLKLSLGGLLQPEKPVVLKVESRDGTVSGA
T4 sequence (P33261 whole entry): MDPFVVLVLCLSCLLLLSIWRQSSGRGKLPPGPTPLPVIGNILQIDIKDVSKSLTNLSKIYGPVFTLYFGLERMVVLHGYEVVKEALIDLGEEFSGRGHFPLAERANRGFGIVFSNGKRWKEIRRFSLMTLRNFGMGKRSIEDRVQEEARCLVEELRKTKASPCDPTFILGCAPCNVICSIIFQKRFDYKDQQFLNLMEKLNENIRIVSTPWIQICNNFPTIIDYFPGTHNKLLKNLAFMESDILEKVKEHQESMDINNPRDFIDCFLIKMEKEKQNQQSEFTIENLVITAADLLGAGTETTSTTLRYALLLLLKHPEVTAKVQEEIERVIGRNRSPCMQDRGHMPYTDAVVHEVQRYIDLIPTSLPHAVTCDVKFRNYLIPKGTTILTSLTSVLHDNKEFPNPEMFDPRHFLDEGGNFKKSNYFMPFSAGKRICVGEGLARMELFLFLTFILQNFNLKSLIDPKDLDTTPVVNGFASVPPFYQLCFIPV
T5 sequence (P10635 whole entry): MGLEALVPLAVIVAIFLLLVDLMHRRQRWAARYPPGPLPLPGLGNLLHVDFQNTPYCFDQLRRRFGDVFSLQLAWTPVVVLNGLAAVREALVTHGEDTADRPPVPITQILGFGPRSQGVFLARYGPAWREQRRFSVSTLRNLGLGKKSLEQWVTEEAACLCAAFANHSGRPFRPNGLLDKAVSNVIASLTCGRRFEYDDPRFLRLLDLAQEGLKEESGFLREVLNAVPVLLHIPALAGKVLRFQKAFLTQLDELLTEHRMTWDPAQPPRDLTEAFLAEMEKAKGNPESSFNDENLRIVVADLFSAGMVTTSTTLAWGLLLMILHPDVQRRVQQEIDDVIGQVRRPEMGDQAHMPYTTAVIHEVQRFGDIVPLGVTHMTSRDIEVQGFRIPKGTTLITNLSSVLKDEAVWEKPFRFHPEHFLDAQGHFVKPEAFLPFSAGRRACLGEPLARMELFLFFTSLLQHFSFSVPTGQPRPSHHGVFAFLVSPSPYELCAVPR
T3 sequence (P11712 whole entry): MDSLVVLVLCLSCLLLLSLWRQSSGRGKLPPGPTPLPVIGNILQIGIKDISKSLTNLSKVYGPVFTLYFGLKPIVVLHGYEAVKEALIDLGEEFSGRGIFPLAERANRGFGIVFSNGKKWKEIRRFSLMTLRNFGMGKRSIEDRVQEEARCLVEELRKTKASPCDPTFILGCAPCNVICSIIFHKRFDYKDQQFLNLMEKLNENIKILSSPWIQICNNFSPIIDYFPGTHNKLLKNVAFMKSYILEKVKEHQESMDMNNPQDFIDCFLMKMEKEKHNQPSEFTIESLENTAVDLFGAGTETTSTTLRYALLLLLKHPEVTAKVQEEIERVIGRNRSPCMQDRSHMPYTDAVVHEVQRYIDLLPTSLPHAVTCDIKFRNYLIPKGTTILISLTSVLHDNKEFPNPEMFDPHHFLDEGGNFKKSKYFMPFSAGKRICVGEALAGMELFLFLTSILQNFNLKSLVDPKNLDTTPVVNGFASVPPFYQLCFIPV

SMILES | IC50 [1, 4] [µM] | other results
Cc1nc(C)c(-c2csc(Nc3ccccn3)n2)s1 [II-22] | < 0.1 | IC50 ([1]; 600 nmol/L 4α-PDD, Fluo3-AM, read-out: TRPV4 inhibitory activity (IC50 value)): 0.073 µM
CC(=O)Nc1nc(-c2ccc(Br)s2)cs1 [II-13] | 1 to 8 | 
Cc1nc(C)c(-c2csc(NC(=O)[C@@H]3CCC(=O)N3)n2)s1 [Compound I-42] |  | Ki [2]: 1 to 3 µM; IC50 (CYP1A2): > 20 µM; IC50 (CYP2C9): > 20 µM; IC50 (CYP2C19): > 20 µM; IC50 (CYP2D6): > 20 µM; IC50 (CYP3A4): > 20 µM
O=C(Nc1nc(-c2ccc(Br)s2)cs1)c1ccc(Br)s1 [II-14] | 1 to 8 | 
CC(C)(C)c1ccc(C(=O)Nc2nc(-c3ccc(Cl)s3)cs2)cc1 [II-12] | 1 to 8 | 
Cc1nc(C)c(-c2csc(NC(=O)Cn3cc(Cl)cn3)n2)s1 [Compound I-116] |  | IC50 [3]: 1 to 8 µM; IC50 (CYP1A2): > 20 µM; IC50 (CYP2C9): > 20 µM; IC50 (CYP2C19): > 20 µM; IC50 (CYP2D6): > 20 µM; IC50 (CYP3A4): > 20 µM
Cc1nc(N)sc1-c1csc(Nc2ccc(Br)cc2Br)n1 [II-21] | 1 to 8 | 
O=C(Nc1nc(-c2ccc(Cl)s2)cs1)c1cccc(C(F)(F)F)c1 [II-10] | 1 to 8 | 
Cc1cccc(Nc2nc(-c3sc(N)nc3C)cs2)c1 [II-20] | 0.1 to 1 | 
C=CCNc1nc(-c2sc(C)nc2C)cs1 [II-24] | 1 to 8 | 
C/C(=N\Nc1nc(-c2cccs2)cs1)c1ccc(Cl)c(Cl)c1 [II-18] | 1 to 8 | 
Cc1ccc(-c2csc(NC(=O)COc3ccc(Br)cc3)n2)s1 [II-16] | 0.1 to 1 | 
c1ccc(Nc2nc(-c3cccs3)cs2)nc1 [II-9] | 1 to 8 | 
O=C(Nc1nc(-c2cccs2)cs1)C1c2ccccc2Oc2ccccc21 [II-15] | 1 to 8 | 
Cc1ccnc(Nc2nc(-c3sc(N)nc3C)cs2)c1 [II-23] | 1 to 8 | 
COc1ccc(/C(C)=N/Nc2nc(-c3sc(C)nc3C)cs2)cc1 [II-19] | 0.1 to 1 | 
O=C(Nc1nc(-c2ccc(Br)s2)cs1)c1cccc(F)c1 [II-11] | 1 to 8 | 
O=C(CSc1ccccc1)Nc1nc(-c2ccc(Br)s2)cs1 [II-17] | 1 to 8 | 
N=C(N)Nc1ncc(-c2csc(NC(=O)c3ccccc3)n2)s1 [Compound I-187] | 1 to 8 | 
